Reference: PMC10630888, “Nuclear ERK1/2 signaling potentiation enhances neuroprotection and cognition via Importinα1/KPNA2” (EMBO Molecular Medicine, 2023)

Experiments:
[1] = tested on: corticostriatal synapses on dSPNs; test: Patch clamp, HFS-LTD at corticostriatal synapses on dSPNs; type: cell-based, mouse; conditions: peptide 50 μM intracellularly, mean, RB5 n = 7 cells, Scr n = 5 cells
Protocol: Brain slices containing both the striatum and the cortex were prepared as described (Trusel et al, [2015]). Mice were anesthetized by isoflurane and decapitated, and their brains were rapidly transferred to ice‐cold dissecting aCSF containing (in mM): 110 Choline‐Cl, 2.5 KCl, 1.25 NaH2PO4, 7 MgCl26H2O, 0.5 CaCl2, 25 NaHCO3, 25 D‐glucose, 11.6 ascorbic acid, saturated with 95% O2 and 5% CO2. Horizontal corticostriatal slices (270 μm thick; patch‐clamp recordings) were cut in the dissecting aCSF using a Vibratome 1000S slicer (Leica, Italy), then transferred to normal aCSF containing (in mM): 115 NaCl, 3.5 KCl, 1.2 NaH2PO4, 1.3 MgCl26H2O, 2 CaCl2, 25 NaHCO3, and 25 D‐glucose and aerated with 95% O2 and 5% CO2. Following 20 min of incubation at 32°C, slices were kept at RT. During experiments, slices were continuously perfused with aCFS at a rate of 2 ml/min at 28°C. […]
SPNs were clamped at a holding membrane potential of −80 mV. […] Series resistance (range 15–25 MW) was monitored at regular intervals throughout the recording and presented minimal variations (≤20%) in the analyzed cells. […]
The occurrence and magnitude of synaptic plasticity was evaluated by comparing the normalized EPSP amplitudes from the last 5 min of baseline recordings with the corresponding values at 20–30 min after HFS (HFS‐LTD). […]

p-ERK in dorsal striatum = test: In vivo dose response of striatal pERK; parameters: species or system mouse; conditions: 1 h after administration, individual mice
Protocol: For the dose response study, 2‐month‐old CD1 male mice were injected with different doses of RB5 (1, 2.5, 5, 10, and 20 mg/kg, i.p.), whereas the control group was injected with 20 mg/kg (i.p.) of SCR peptide. Mice were perfused 1 h later with 4% PFA. For the time course study, mice were injected i.p. with 20 mg/kg of RB5 and perfused at different time points with 4% PFA (1, 3, 6, and 12 h). The control group was injected i.p. with 20 mg/kg of SCR. Brains were postfixed in 4% PFA for 24 h and cryoprotected overnight in sucrose 30% before immunohistochemistry against phospho‐ERK1/2.
Immunohistochemistry was performed as described in Papale et al ([2016]). […]
For in vivo immunohistochemistry experiments, images were acquired from the dorsal striatum using a Leica DM IRB microscope under a 20× objective. The number of p‐ERK, p‐MSK‐1, p‐ELK, p‐MEK‐1, p‐VG K+, c‐Fos, and DARPP‐32 positive cells was counted in 2–3 consecutive sections per mouse, bilaterally and averaged across the sections using the ImageJ software by a blind investigator to the condition. Estimation of nigral cell loss was assessed by quantifying the number of TH‐immunopositive neurons of the SNc in 360 μm‐spaced sections for each animal.

Substance | Normalized EPSP amplitude after HFS (20–30 min) versus baseline ([1]; listed as Scr) | Normalized EPSP amplitude after HFS (20–30 min) versus baseline ([1]; listed as control peptide) | p-ERK-positive cells in dorsal striatum (p-ERK in dorsal striatum; 10 mg/kg i.p.) | p-ERK-positive cells in dorsal striatum (p-ERK in dorsal striatum; 20 mg/kg i.p.)
SCR: ineffective Scramble version of RB5 containing a TAT sequence (GRKKRRQRRRPPRVGPGVPEGVGVAVFGVKEPGQTGDVGPVGE) [reference compound] | 76.7653 | had no effect on plasticity induction | – | –
GRKKRRQRRRPPQGGGGGEPRRTEGVGPGVPGEVEMVKGQPFDV [RB5, six D-amino acids, acetylated N-terminus] | – | – | significant striatal ERK activation | significant striatal ERK activation
